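Cultured in 96-well plates, cells were exposed to test compound for 48 hours across five concentrations. GI50 marks 50% less growth.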 The source made the active and inactive calls. No stated cut-off is given here; in the data, active = GI50 up to about 1.1 µM and inactive = higher.
Key:
Test in all cases: NCI tumour cell line growth inhibition, 48 h
786-0 = tested on: 786-0
A498 = tested on: A498
A549 = tested on: A549
ACHN = tested on: ACHN
BT-549 = tested on: BT-549
CAKI-1 = tested on: CAKI-1
CCRF-CEM = tested on: CCRF-CEM
COLO 205 = tested on: COLO 205
DU-145 = tested on: DU-145
EKVX = tested on: EKVX
HCC 2998 = tested on: HCC 2998
HCT-116 = tested on: HCT-116
HCT-15 = tested on: HCT-15
HL-60 = tested on: HL-60
HOP-62 = tested on: HOP-62
HOP-92 = tested on: HOP-92
HT-29 = tested on: HT-29
Hs-578T = tested on: Hs-578T
IGROV-1 = tested on: IGROV-1
K562 = tested on: K562
KM12 = tested on: KM12
LOX IMVI = tested on: LOX IMVI
M14 = tested on: M14
MCF7 = tested on: MCF7
MDA-MB-231 = tested on: MDA-MB-231
MDA-MB-435 = tested on: MDA-MB-435
MDA-N = tested on: MDA-N
MOLT-4 = tested on: MOLT-4
Malme-3M = tested on: Malme-3M
NCI-H226 = tested on: NCI-H226
NCI-H23 = tested on: NCI-H23
NCI-H460 = tested on: NCI-H460
NCI-H522 = tested on: NCI-H522
NCI/ADR-RES = tested on: NCI/ADR-RES
OVCAR-3 = tested on: OVCAR-3
OVCAR-4 = tested on: OVCAR-4
OVCAR-5 = tested on: OVCAR-5
OVCAR-8 = tested on: OVCAR-8
PC-3 = tested on: PC-3
RPMI-8226 = tested on: RPMI-8226
RXF 393 = tested on: RXF 393
SF-268 = tested on: SF-268
SF-295 = tested on: SF-295
SF-539 = tested on: SF-539
SK-MEL-28 = tested on: SK-MEL-28
SK-MEL-2 = tested on: SK-MEL-2
SK-MEL-5 = tested on: SK-MEL-5
SK-OV-3 = tested on: SK-OV-3
SN12C = tested on: SN12C
SNB-19 = tested on: SNB-19
SNB-75 = tested on: SNB-75
SR = tested on: SR
SW-620 = tested on: SW-620
T47D = tested on: T47D
TK-10 = tested on: TK-10
U-251 = tested on: U-251
UACC-257 = tested on: UACC-257
UACC-62 = tested on: UACC-62
UO-31 = tested on: UO-31

CC(C)C[C@H](NC(=O)[C@H](Cc1cccc2ccccc12)NC(=O)N1CCOCC1)B(O)O
GI50 (786-0): 0.00362 µM (active)
GI50 (A498): < 0.01 µM (active)
GI50 (A549): < 0.0107 µM (active)
GI50 (ACHN): < 0.01 µM (active)
GI50 (BT-549): < 0.01 µM (active)
GI50 (CAKI-1): < 0.0126 µM (active)
GI50 (CCRF-CEM): < 0.01 µM (active)
GI50 (COLO 205): 0.0122 µM (active)
GI50 (DU-145): < 0.01 µM (active)
GI50 (EKVX): 0.0334 µM (active)
GI50 (HCC 2998): < 0.01 µM (active)
GI50 (HCT-116): < 0.01 µM (active)
GI50 (HCT-15): < 0.0202 µM
GI50 (HL-60): < 0.01 µM (active)
GI50 (HOP-62): < 0.01 µM (active)
GI50 (HOP-92): < 0.01 µM (active)
GI50 (HT-29): < 0.01 µM (active)
GI50 (Hs-578T): < 0.01 µM (active)
GI50 (IGROV-1): < 0.01 µM (active)
GI50 (K562): < 0.01 µM (active)
GI50 (KM12): < 0.01 µM (active)
GI50 (LOX IMVI): < 0.01 µM (active)
GI50 (M14): < 0.01 µM (active)
GI50 (MCF7): < 0.0444 µM (active)
GI50 (MDA-MB-231): < 0.01 µM (active)
GI50 (MDA-MB-435): < 0.01 µM (active)
GI50 (MDA-N): < 0.01 µM (active)
GI50 (MOLT-4): < 0.01 µM (active)
GI50 (Malme-3M): < 0.01 µM (active)
GI50 (NCI-H226): 0.000104 µM (active)
GI50 (NCI-H23): < 0.01 µM (active)
GI50 (NCI-H460): < 0.012 µM (active)
GI50 (NCI-H522): < 0.01 µM (active)
GI50 (NCI/ADR-RES): 0.149 µM (active)
GI50 (OVCAR-3): < 0.01 µM (active)
GI50 (OVCAR-4): < 0.01 µM (active)
GI50 (OVCAR-5): < 0.01 µM (active)
GI50 (OVCAR-8): < 0.0128 µM (active)
GI50 (PC-3): < 0.0108 µM (active)
GI50 (RPMI-8226): < 0.01 µM (active)
GI50 (RXF 393): 0.000555 µM (active)
GI50 (SF-268): < 0.01 µM (active)
GI50 (SF-295): 0.00348 µM (active)
GI50 (SF-539): < 0.01 µM (active)
GI50 (SK-MEL-28): < 0.01 µM (active)
GI50 (SK-MEL-2): < 0.01 µM (active)
GI50 (SK-MEL-5): 0.001 µM (active)
GI50 (SK-OV-3): 0.008 µM (active)
GI50 (SN12C): < 0.01 µM (active)
GI50 (SNB-19): < 0.01 µM (active)
GI50 (SNB-75): < 0.01 µM (active)
GI50 (SR): < 0.0126 µM (active)
GI50 (SW-620): 0.000776 µM (active)
GI50 (T47D): < 0.01 µM (active)
GI50 (TK-10): < 0.01 µM (active)
GI50 (U-251): < 0.01 µM (active)
GI50 (UACC-257): < 0.01 µM (active)
GI50 (UACC-62): < 0.01 µM (active)
GI50 (UO-31): 0.0313 µM (active)

O=C1c2ccccc2-[n+]2ccc3c([nH]c4ccccc43)c21 [FASCAPLYSIN CHLORIDE]
GI50 (786-0): 0.427 µM (active)
GI50 (A498): 1.58 µM (inactive)
GI50 (A549): 0.565 µM (active)
GI50 (ACHN): 0.557 µM (active)
GI50 (BT-549): 2.26 µM (inactive)
GI50 (CAKI-1): 0.659 µM (active)
GI50 (CCRF-CEM): 0.337 µM (active)
GI50 (COLO 205): 0.21 µM (active)
GI50 (DU-145): 1.15 µM (inactive)
GI50 (EKVX): 0.274 µM (active)
GI50 (HCC 2998): 0.19 µM (active)
GI50 (HCT-116): 0.195 µM (active)
GI50 (HCT-15): 0.851 µM
GI50 (HL-60): 0.404 µM (active)
GI50 (HOP-62): 1.14 µM (inactive)
GI50 (HOP-92): 1.66 µM (inactive)
GI50 (HT-29): 0.37 µM (active)
GI50 (Hs-578T): 1.24 µM (inactive)
GI50 (IGROV-1): 0.196 µM (active)
GI50 (K562): 0.925 µM (active)
GI50 (KM12): 0.18 µM (active)
GI50 (LOX IMVI): 0.245 µM (active)
GI50 (M14): 0.159 µM (active)
GI50 (MCF7): 0.184 µM (active)
GI50 (MDA-MB-231): 0.22 µM (active)
GI50 (MDA-MB-435): 0.179 µM (active)
GI50 (MDA-N): 0.191 µM (active)
GI50 (MOLT-4): 0.285 µM (active)
GI50 (Malme-3M): 0.0586 µM (active)
GI50 (NCI-H226): 0.964 µM (active)
GI50 (NCI-H23): 0.31 µM (active)
GI50 (NCI-H460): 0.263 µM (active)
GI50 (NCI-H522): 0.49 µM (active)
GI50 (NCI/ADR-RES): 1.21 µM (inactive)
GI50 (OVCAR-3): 0.145 µM (active)
GI50 (OVCAR-4): 0.628 µM (active)
GI50 (OVCAR-5): 0.48 µM (active)
GI50 (OVCAR-8): 0.439 µM (active)
GI50 (PC-3): 0.269 µM (active)
GI50 (RPMI-8226): 0.186 µM (active)
GI50 (RXF 393): 0.384 µM (active)
GI50 (SF-268): 0.247 µM (active)
GI50 (SF-295): 0.232 µM (active)
GI50 (SF-539): 0.349 µM (active)
GI50 (SK-MEL-28): 0.34 µM (active)
GI50 (SK-MEL-2): 0.226 µM (active)
GI50 (SK-MEL-5): 0.14 µM (active)
GI50 (SK-OV-3): 1.56 µM (inactive)
GI50 (SN12C): 0.231 µM (active)
GI50 (SNB-19): 0.615 µM (active)
GI50 (SNB-75): 0.452 µM (active)
GI50 (SR): 0.132 µM (active)
GI50 (SW-620): 0.296 µM (active)
GI50 (T47D): 0.755 µM (active)
GI50 (TK-10): 1.14 µM (inactive)
GI50 (U-251): 0.274 µM (active)
GI50 (UACC-257): 0.327 µM (active)
GI50 (UACC-62): 0.242 µM (active)
GI50 (UO-31): 0.682 µM (active)

— ChEMBL document CHEMBL1201862, “PubChem BioAssay data set” (2004)
